# Experimental data taken from patent US7235536B2, “Cellulose sulfate and other sulfated polysaccharides to prevent and treat papilloma virus infection and other infections” (Rush Presbyterian-St. Luke's Medical Center, priority 2000, dated 2007).
# Read-outs that look alike come from different tables or passages of the source.
# Key:
# [1] = test system: Prevotella disiens; test: Broth method MIC; assay type: cell-based; details: for CS MIC: Broth (study 2)
# [2] = test system: Prevotella bivia; test: Broth method MIC; assay type: cell-based
# [3] = test system: Prevotella intermedia; test: Broth method MIC; assay type: cell-based; details: for CS MIC: Broth (study 2)
# [4] = test system: BPV-1; test: BPV-1 focus-forming assay, virus preincubated with compound (Table C); assay type: cell-based, bovine papilloma virus; details: C127 cell line
# Procedure: In a similar study using the BPV-1 focus forming assay, the effect of the cellulose sulfate and dextran sulfate on BPV was tested. In this study, cellulose sulfate tested was as described above. Dextran sulfate used was from Dextran Products Limited (Lot DSM-122) prepared using dextan of average Mr of about 500,000 (based on viscosity) and is estimated to have a final average Mr greater than about 500,000 and may be about 1 to 1.1 million.
# Microbicidal activity of the compounds was tested using the well-characterized BPV-1 focus-forming assay (Dvoretzky, I., R. Shober, S. K. Chattopadhyay, and D. R. Lowy. 1980. A quantitative in vitro focus assay for bovine papilloma virus. Virology 103:369-375), with modifications for microbicide testing (Hermonat, P. L., (1992) supra; Howett, M. K., et al. (1999) supra. The terms inhibiting or microbicidal activity when used are intended to refer broadly to microbe infection and/or microbe inactivating effect.
# Aliquots of BPV-1 containing approximately 100-200 focus-forming units were preincubated with dilutions of compounds for 10 min at 37° C. prior to addition to cultures of mouse C127 cells. Cultures of C127 cells were set up in T25 tissue culture flasks (Corning, N.Y.), containing 3×10^5 cells per flask. Virus-compound mixtures in a total of 50 μl were then added to flasks in 1 ml of media, and an additional 3 ml of media added after 24 hrs culture. Media was changed every 3-4 days for a period of 2 weeks. Foci were enumerated following staining of the monolayer with crystal violet and counting stained foci microscopically. Each concentration of compound was tested in duplicate, and the mean±SD of foci number for the preincubation virus-drug concentration for each compound is shown below as Table C.
# Clones were derived from the parental C127 cell line because of the consistent failure of BPV-1 to induce foci following several cell passages of the uncloned parental cell line. One clone, labeled C127-D10, which produced foci upon BPV-1 infection, was chosen for a repeat testing of the compounds. When this clone was tested for microbicidal activity, less compound was required to achieve high reduction in BPV-1-induced foci when compared to the uncloned parental-C127 cells.
# [5] = test system: Clostridium perfringes; test: Broth method MIC; assay type: cell-based; details: for CS MIC: Broth (study 2)
# [6] = test system: Gardnerella vaginalis; test: Agar well growth inhibition on HBT bilayer agar plates; assay type: cell-based
# Procedure: A fresh subculture of G. Vaginalis which is bacteria frequently associated with vaginitis was obtained after overnight growth (16 hours) on a V-agar plate and suspended in sterile phosphate buffered saline (PBS; pH 7.2) to achieve a turbidity of 0.5 (McFarland standard; approximately 10^8 CFU/ml). The suspension was diluted 10 fold and applied to HBT bilayer agar plates by swabbing the entire plate. The plate was allowed to dry for 2-3 min and small wells punched in the agar, 10 mm in diameter. Samples of cellulose sulfate were dissolved at 10 mg/ml in PBS and 0.2 ml placed in the agar wells. As control, 0.2 ml PBS was placed in one of the wells. Growth inhibition was indicated by a light area around the well.
# The studies were repeated using various concentrations of cellulose sulfate (ranging from 10 mg/ml to 0.125 mg/ml) and 4 different Gardnerella vaginalis strains. […] The lowest initial concentration of cellulose sulfate at which growth inhibition occurred was 0.5 mg/ml.
# [7] = test system: Fusobacterium gonidiaformans; test: Broth method MIC; assay type: cell-based; details: for CS MIC: Broth (study 2)
# [8] = test system: Fusobacterium nucleatum; test: Broth method MIC; assay type: cell-based; details: for CS MIC: Broth (study 2)
# [9] = test system: Peptostreptococcus tetradius; test: Broth method MIC; assay type: cell-based; details: for CS MIC: Broth (study 2)
# [10] = test system: Bacteroides fragilis; details: Agar
# [11] = test system: Porphyromonas asaccharolytica; test: Broth method MIC; assay type: cell-based; details: for CS MIC: Broth (study 2)
# [12] = test system: Bacteroides thetaiotaomicron; test: Broth method MIC; assay type: cell-based
# [13] = test system: Gardnerella vaginalis; test: Broth method MIC; assay type: cell-based; details: for CS MIC: Broth (study 2)
# [14] = test system: Prevotella melaminogenica; test: Broth method MIC; assay type: cell-based; details: for CS MIC: Broth (study 2)
# [15] = test system: Bacteroides thetaiotaomicron; test: Agar method MIC; assay type: cell-based
substance,measurement,setting,value
sodium cellulose sulfate,growth inhibition,[1]; all strains,inhibited
same,CS MIC,[1]; rma# 11579,10 mg/mL
same,CS MIC,[1]; rma# 11698,10 mg/mL
same,growth inhibition,[2]; all strains,inhibited
same,CS MIC,"[2]; rma# 11683, Broth (study 1)",NI (not inhibited by 10 mg/ml (the highest concentration tested))
same,CS MIC,"[2]; rma# 11683, Broth (study 2)",5 mg/mL
same,CS MIC,"[2]; rma# 11697, Broth (study 1)",0.6 mg/mL
same,CS MIC,"[2]; rma# 11697, Broth (study 2)",5 mg/mL
same,growth inhibition,[3]; all strains,inhibited
same,CS MIC,[3]; rma# 11142,10 mg/mL
same,CS MIC,[3]; rma# 11168,10 mg/mL
same,inhibition of papilloma virus infectivity,[4]; 1 mg/ml,complete inhibition
same,inhibition of papilloma virus infectivity,[4]; 10 to 100 μg/ml,moderate to high inhibition
same,growth inhibition,[5]; at the concentrations tested,inhibited one strain of Clostridium perfringes but not another one
same,CS MIC,[5]; rma# 11608,10 mg/mL
same,CS MIC,[5]; rma# 11655,NI (not inhibited by 10 mg/ml (the highest concentration tested))
same,"area of growth inhibition around the well, diameter","[6]; 10 mg/ml in PBS, 0.2 ml in agar well",6 mm
same,growth inhibition,"[6]; 4 different Gardnerella vaginalis strains, 10 mg/ml to 0.125 mg/ml",Dose dependent inhibition
same,lowest initial concentration at which growth inhibition occurred,"[6]; 4 different Gardnerella vaginalis strains, 10 mg/ml to 0.125 mg/ml tested",0.5 mg/mL
same,growth inhibition,"[7]; both strains, broth method",inhibited
same,CS MIC,[7]; rma# 11423,5 mg/mL
same,CS MIC,[7]; rma# 11653,5 mg/mL
same,growth inhibition,"[8]; both strains, broth method",inhibited
same,CS MIC,[8]; rma# 10481,5 mg/mL
same,CS MIC,[8]; rma# 11518,10 mg/mL
same,growth inhibition,[9]; all strains,inhibited
same,CS MIC,[9]; rma# 11253,5 mg/mL
same,CS MIC,[9]; rma# 11287,5 mg/mL
same,CS MIC,[10]; ATCC (first listed),>0.625 mg/mL
same,CS MIC,[10]; rma# 11647,>0.625 mg/mL
same,CS MIC,[10]; rma# 11652,>0.625 mg/mL
same,growth inhibition,[11]; at the concentrations tested,Two strains of Porphyromonas asaccharolytica were inhibited but a third one was not
same,CS MIC,[11]; rma# 11656,5 mg/mL
same,CS MIC,[11]; rma# 11690,NI (not inhibited by 10 mg/ml (the highest concentration tested))
same,CS MIC,"[12]; ATCC (first listed), Broth (study 1)",NI (not inhibited by 10 mg/ml (the highest concentration tested))
same,CS MIC,"[12]; ATCC (first listed), Broth (study 2)",NI (not inhibited by 10 mg/ml (the highest concentration tested))
same,CS MIC,"[12]; ATCC (second listed), Broth (study 2)",10 mg/mL
same,growth inhibition,[12]; at the concentrations tested,One strain of Bacteroides thetaiotaomicron was inhibited but three others were not
same,CS MIC,"[12]; rma# 11604, Broth (study 2)",NI (not inhibited by 10 mg/ml (the highest concentration tested))
same,CS MIC,"[12]; rma# 11651, Broth (study 2)",NI (not inhibited by 10 mg/ml (the highest concentration tested))
same,growth inhibition,[13]; both strains,inhibited
same,CS MIC,[13]; rma# 12066,5 mg/mL
same,CS MIC,[13]; rma# 12262,5 mg/mL
same,growth inhibition,[14]; at the concentrations tested,Neither one of the strains of Prevotella melaminogenica were inhibited
same,CS MIC,[14]; rma# 5657,NI (not inhibited by 10 mg/ml (the highest concentration tested))
same,CS MIC,[14]; rma# 9052,NI (not inhibited by 10 mg/ml (the highest concentration tested))
same,CS MIC,[15]; ATCC (first listed),>0.625 mg/mL
same,CS MIC,[15]; rma# 11604,>0.625 mg/mL
same,CS MIC,[15]; rma# 11651,>0.625 mg/mL
